In ChEMBL document CHEMBL4373693, “Virtual Screening Approach and Investigation of Structure-Activity Relationships To Discover Novel Bacterial Topoisomerase Inhibitors Targeting Gram-Positive and Gram-Negative Pathogens” (J Med Chem, 2019):
≈ marks a conversion by molar mass, not a printed value.

Key:
[1] = tested on: Klebsiella pneumoniae; assay: Antibacterial activity against quinolone-sensitive Klebsiella pneumoniae ATCC 700603 after 16 to 24 hrs by broth microdilution method; assay type: functional
[2] = tested on: Escherichia coli; assay: Selectivity ratio of MIC for Escherichia coli ATCC 25922 in presence of 50% human serum to MIC for Escherichia coli ATCC 25922; assay type: functional
[3] = Selectivity ratio, ratio of IC50 for human HEK293 cells to MIC for Staphylococcus aureus ATCC 29213; assay type: toxicity; details: read-out: Selectivity Index
[4] = tested on: Haemophilus influenzae; assay: Antibacterial activity against quinolone-sensitive Haemophilus influenzae ATCC 49766 after 16 to 24 hrs by broth microdilution method; assay type: functional
[5] = tested on: Enterococcus faecalis; assay: Antibacterial activity against vancomycin and teicoplanin-resistant Enterococcus faecalis APV 00408 after 16 to 24 hrs by broth microdilution method; assay type: functional
[6] = tested on: HEK293; assay: Cytotoxicity against human HEK293 cells after 48 hrs by Alamar blue staining-based fluorometric analysis; assay type: cell-based; details: HEK293, 48 h
[7] = tested on: Staphylococcus aureus; assay: Antibacterial activity against Staphylococcus aureus ATCC 29213 in presence of 50% human serum after 16 to 24 hrs by broth microdilution method; assay type: functional
[8] = tested on: Enterococcus faecium; assay: Antibacterial activity against vancomycin resistant and teicoplanin sensitive Enterococcus faecium APV 00553 after 16 to 24 hrs by broth microdilution method; assay type: functional
[9] = tested on: HepG2; assay: Cytotoxicity against human HepG2 cells after 48 hrs by Alamar blue staining-based fluorometric analysis; assay type: cell-based; details: HepG2, 48 h
[10] = tested on: Enterococcus faecium; assay: Antibacterial activity against Enterococcus faecium APV 00627 after 16 to 24 hrs by broth microdilution method; assay type: functional
[11] = tested on: Enterococcus faecalis; assay: Antibacterial activity against vancomycin-sensitive Enterococcus faecalis APV 00406 after 16 to 24 hrs by broth microdilution method; assay type: functional
[12] = tested on: Enterococcus faecalis; assay: Antibacterial activity against vancomycin-sensitive Enterococcus faecalis APV 00404 after 16 to 24 hrs by broth microdilution method; assay type: functional
[13] = tested on: Enterococcus faecium; assay: Antibacterial activity against Enterococcus faecium APV 00626 after 16 to 24 hrs by broth microdilution method; assay type: functional
[14] = tested on: Enterococcus faecalis; assay: Antibacterial activity against vancomycin and teicoplanin-resistant Enterococcus faecalis APV 00409 after 16 to 24 hrs by broth microdilution method; assay type: functional
[15] = Selectivity ratio, ratio of IC50 for human HepG2 cells to MIC for Staphylococcus aureus ATCC 29213; assay type: toxicity; details: read-out: Selectivity Index
[16] = target: T1, DNA topoisomerase 4 subunit A (Escherichia coli K-12, UniProt P0AFI2); assay: Inhibition of Escherichia coli ATCC 25922 DNA topoisomerase 4 subunit ParC assessed as reduction in decatenation of kinetoplast DNA incubated for 30 mins by ethidium bromide staining based gel electrophoresis method
T1 sequence (P0AFI2 whole entry): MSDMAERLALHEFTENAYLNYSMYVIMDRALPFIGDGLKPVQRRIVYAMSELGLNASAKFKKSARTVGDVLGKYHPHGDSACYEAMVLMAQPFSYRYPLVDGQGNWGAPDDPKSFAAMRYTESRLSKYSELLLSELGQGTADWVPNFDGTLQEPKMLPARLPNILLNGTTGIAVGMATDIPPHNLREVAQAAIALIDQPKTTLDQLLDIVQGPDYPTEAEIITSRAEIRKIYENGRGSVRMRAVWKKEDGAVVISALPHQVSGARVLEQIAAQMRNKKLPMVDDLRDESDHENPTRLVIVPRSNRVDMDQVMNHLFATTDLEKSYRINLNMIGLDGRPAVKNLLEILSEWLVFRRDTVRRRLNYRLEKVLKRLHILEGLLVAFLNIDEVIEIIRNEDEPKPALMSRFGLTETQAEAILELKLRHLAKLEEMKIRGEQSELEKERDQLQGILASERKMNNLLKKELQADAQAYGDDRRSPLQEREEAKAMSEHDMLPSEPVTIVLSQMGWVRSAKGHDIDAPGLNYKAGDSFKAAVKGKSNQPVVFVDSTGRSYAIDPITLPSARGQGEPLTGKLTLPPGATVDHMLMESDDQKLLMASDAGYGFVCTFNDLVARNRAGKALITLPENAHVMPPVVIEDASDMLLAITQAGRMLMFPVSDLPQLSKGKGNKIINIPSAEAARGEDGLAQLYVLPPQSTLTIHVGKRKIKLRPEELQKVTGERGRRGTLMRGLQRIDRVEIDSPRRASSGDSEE

[17] = tested on: Enterococcus faecalis; assay: Antibacterial activity against Enterococcus faecalis ATCC 29212 after 16 to 24 hrs by broth microdilution method; assay type: functional
[18] = tested on: Staphylococcus aureus; assay: Antibacterial activity against Staphylococcus aureus BAA-1720 after 16 to 24 hrs by broth microdilution method; assay type: functional
[19] = tested on: Escherichia coli; assay: Antibacterial activity against Escherichia coli ATCC 25922 in presence of 50% human serum after 16 to 24 hrs by broth microdilution method; assay type: functional
[20] = target: DNA gyrase subunit A (Staphylococcus aureus, UniProt P20831); assay: Inhibition of Staphylococcus aureus ATCC 29213 DNA gyrase A assessed as reduction in enzyme-mediated supercoiling of relaxed pBR322 DNA by ethidium bromide staining based gel electrophoresis method
DNA gyrase subunit A (Staphylococcus aureus, UniProt P20831), sequence (P20831 whole entry): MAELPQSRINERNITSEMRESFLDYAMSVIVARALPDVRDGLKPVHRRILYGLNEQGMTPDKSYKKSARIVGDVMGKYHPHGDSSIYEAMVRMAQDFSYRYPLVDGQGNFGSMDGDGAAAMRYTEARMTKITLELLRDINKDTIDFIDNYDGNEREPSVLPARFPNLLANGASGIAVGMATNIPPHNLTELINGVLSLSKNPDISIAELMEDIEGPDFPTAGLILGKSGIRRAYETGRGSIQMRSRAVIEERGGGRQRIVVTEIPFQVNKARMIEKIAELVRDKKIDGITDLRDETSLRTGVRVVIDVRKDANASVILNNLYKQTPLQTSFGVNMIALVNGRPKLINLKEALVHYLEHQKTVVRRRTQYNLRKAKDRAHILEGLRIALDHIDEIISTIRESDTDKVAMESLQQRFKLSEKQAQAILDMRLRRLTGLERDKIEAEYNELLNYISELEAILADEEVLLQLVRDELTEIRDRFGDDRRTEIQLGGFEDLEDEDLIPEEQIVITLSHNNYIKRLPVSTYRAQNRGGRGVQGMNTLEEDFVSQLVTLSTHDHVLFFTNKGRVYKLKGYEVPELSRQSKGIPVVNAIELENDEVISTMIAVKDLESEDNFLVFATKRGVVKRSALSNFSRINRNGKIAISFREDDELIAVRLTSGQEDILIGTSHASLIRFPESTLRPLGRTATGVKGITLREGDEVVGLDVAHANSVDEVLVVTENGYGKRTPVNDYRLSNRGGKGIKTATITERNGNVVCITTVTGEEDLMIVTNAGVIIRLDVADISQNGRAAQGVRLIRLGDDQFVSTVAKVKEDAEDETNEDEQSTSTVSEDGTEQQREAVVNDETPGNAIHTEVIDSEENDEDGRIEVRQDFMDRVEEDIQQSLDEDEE

[21] = tested on: Escherichia coli; assay: Antibacterial activity against Escherichia coli ATCC 25922 after 16 to 24 hrs by broth microdilution method; assay type: functional
[22] = tested on: Enterococcus faecium; assay: Antibacterial activity against vancomycin and teicoplanin-resistant Enterococcus faecium APV 00424 after 16 to 24 hrs by broth microdilution method; assay type: functional
[23] = Selectivity ratio, ratio of IC50 for human HEK293 cells to MIC for Escherichia coli ATCC 25922; assay type: toxicity; details: read-out: Selectivity Index
[24] = tested on: Enterococcus faecium; assay: Antibacterial activity against vancomycin and teicoplanin-resistant Enterococcus faecium APV 00422 after 16 to 24 hrs by broth microdilution method; assay type: functional
[25] = target: hERG (KCNH2) (Homo sapiens, UniProt Q12809); assay: Inhibition of human ERG expressed in CHO cells at 10 uM after 5 mins by automated whole-cell patch clamp relative to control; assay type: cell-based; details: CHO cells that express human ERG
hERG (KCNH2), sequence (Q12809 whole entry): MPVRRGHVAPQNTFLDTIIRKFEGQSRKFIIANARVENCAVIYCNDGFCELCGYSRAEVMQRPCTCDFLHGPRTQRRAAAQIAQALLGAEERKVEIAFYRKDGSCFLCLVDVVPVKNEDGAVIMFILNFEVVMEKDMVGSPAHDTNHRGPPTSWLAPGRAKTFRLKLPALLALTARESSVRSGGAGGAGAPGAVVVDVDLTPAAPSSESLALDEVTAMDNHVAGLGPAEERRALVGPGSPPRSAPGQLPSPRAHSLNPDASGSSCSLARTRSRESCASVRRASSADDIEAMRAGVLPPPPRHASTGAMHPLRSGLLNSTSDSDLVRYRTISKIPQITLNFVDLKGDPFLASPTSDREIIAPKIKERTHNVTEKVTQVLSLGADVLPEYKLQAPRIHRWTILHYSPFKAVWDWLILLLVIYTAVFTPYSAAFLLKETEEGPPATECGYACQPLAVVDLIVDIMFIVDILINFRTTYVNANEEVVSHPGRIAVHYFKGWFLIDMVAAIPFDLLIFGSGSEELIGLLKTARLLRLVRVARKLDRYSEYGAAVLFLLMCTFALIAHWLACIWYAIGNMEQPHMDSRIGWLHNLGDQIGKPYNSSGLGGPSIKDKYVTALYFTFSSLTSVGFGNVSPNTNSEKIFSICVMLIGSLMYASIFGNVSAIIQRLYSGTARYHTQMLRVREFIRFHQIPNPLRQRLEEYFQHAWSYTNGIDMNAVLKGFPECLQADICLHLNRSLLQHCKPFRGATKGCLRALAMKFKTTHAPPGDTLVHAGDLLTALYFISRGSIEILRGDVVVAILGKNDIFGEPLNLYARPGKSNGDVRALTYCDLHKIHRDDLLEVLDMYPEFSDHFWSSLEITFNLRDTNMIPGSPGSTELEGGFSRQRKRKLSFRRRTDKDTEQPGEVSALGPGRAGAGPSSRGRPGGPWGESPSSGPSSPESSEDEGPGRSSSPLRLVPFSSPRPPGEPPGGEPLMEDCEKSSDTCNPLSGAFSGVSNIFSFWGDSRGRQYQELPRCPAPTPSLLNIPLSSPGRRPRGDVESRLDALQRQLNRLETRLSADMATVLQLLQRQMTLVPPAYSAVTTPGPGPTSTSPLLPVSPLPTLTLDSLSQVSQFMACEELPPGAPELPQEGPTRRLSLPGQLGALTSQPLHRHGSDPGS

[26] = tested on: Haemophilus influenzae; assay: Antibacterial activity against quinolone-sensitive Haemophilus influenzae H128 after 16 to 24 hrs by broth microdilution method; assay type: functional
[27] = tested on: Pseudomonas aeruginosa; assay: Antibacterial activity against Pseudomonas aeruginosa ATCC 27853 after 16 to 24 hrs by CLSI method; assay type: functional
[28] = Selectivity ratio, ratio of IC50 for human HepG2 cells to MIC for Escherichia coli ATCC 25922; assay type: toxicity; details: read-out: Selectivity Index
[29] = tested on: Neisseria gonorrhoeae; assay: Antibacterial activity against Neisseria gonorrhoeae ATCC 19424 after 16 to 24 hrs by broth microdilution method; assay type: functional
[30] = tested on: Staphylococcus aureus; assay: Selectivity ratio of MIC for Staphylococcus aureus ATCC 29213 in presence of 50% human serum to MIC for Staphylococcus aureus ATCC 29213; assay type: functional
[31] = target: DNA topoisomerase 4 subunit A (Staphylococcus aureus, UniProt P0C1U9); assay: Inhibition of Staphylococcus aureus ATCC 29213 DNA topoisomerase 4 subunit ParC assessed as reduction in decatenation of kinetoplast DNA incubated for 30 mins by ethidium bromide staining based gel electrophoresis method
DNA topoisomerase 4 subunit A (Staphylococcus aureus, UniProt P0C1U9), sequence (P0C1U9 whole entry): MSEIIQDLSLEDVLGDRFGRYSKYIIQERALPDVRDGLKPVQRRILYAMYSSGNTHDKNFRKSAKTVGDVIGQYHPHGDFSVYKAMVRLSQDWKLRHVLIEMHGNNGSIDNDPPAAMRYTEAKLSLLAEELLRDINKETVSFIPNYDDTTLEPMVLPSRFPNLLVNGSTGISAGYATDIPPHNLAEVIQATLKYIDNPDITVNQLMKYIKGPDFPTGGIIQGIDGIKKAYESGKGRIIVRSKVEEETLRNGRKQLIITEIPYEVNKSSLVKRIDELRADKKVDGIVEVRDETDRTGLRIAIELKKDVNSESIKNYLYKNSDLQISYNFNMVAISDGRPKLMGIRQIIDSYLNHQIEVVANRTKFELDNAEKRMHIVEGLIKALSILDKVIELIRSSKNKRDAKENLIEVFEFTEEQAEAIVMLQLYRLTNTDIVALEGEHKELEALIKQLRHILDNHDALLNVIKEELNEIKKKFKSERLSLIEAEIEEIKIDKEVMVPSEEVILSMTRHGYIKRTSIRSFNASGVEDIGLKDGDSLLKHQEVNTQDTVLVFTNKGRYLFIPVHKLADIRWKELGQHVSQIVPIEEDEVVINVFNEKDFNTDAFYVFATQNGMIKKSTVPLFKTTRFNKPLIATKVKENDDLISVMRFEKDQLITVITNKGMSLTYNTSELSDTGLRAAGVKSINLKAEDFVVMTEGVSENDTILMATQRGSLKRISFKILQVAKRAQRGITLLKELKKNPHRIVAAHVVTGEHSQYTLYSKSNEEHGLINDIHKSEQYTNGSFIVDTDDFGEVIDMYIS

[32] = tested on: Staphylococcus aureus; assay: Selectivity ratio of MIC for Staphylococcus aureus BAA-1720 in presence of 50% human serum to MIC for Staphylococcus aureus BAA-1720; assay type: functional
[33] = target: DNA gyrase subunit A (Escherichia coli K-12, UniProt P0AES4); assay: Inhibition of Escherichia coli ATCC 25922 DNA gyrase A assessed as reduction in enzyme-mediated supercoiling of relaxed pBR322 DNA by ethidium bromide staining based gel electrophoresis method
DNA gyrase subunit A (Escherichia coli K-12, UniProt P0AES4), sequence (P0AES4 whole entry): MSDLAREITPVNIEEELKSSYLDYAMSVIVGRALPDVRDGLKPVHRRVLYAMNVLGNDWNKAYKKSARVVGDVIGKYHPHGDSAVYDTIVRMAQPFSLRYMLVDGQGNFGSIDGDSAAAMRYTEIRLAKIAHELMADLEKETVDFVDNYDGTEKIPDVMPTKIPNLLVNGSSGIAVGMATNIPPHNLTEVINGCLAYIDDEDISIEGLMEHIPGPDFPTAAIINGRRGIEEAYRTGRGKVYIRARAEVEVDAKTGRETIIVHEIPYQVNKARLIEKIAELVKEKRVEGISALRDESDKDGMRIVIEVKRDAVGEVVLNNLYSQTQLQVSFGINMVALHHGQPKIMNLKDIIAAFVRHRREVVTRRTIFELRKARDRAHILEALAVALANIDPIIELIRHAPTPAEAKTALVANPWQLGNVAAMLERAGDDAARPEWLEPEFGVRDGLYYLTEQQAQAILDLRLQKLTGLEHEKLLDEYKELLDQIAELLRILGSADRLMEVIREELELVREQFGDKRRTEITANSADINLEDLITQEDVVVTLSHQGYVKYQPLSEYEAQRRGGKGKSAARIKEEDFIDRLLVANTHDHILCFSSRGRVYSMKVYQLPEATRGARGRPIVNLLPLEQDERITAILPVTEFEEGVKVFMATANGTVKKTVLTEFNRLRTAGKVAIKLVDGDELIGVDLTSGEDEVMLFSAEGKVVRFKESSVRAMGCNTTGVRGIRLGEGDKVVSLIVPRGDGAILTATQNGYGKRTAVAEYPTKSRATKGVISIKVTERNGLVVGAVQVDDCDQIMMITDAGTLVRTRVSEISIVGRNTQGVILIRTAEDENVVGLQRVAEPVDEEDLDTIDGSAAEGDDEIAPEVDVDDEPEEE

[34] = tested on: Staphylococcus aureus; assay: Antibacterial activity against Staphylococcus aureus ATCC 29213 after 16 to 24 hrs by broth microdilution method; assay type: functional
[35] = tested on: Staphylococcus aureus; assay: Antibacterial activity against Staphylococcus aureus BAA-1720 in presence of 50% human serum after 16 to 24 hrs by broth microdilution method; assay type: functional
[36] = tested on: Enterococcus faecium; assay: Antibacterial activity against vancomycin resistant and teicoplanin sensitive Enterococcus faecium APV 00420 after 16 to 24 hrs by broth microdilution method; assay type: functional
[37] = tested on: Enterococcus faecalis; assay: Antibacterial activity against vancomycin-sensitive Enterococcus faecalis APV 00623 after 16 to 24 hrs by broth microdilution method; assay type: functional
[38] = tested on: HaCaT; assay: Cytotoxicity against human HaCaT cells after 24 hrs by resazurin dye based CellTiter-Blue assay; assay type: cell-based

Row | SMILES | MIC [1] [µg/mL] | Ratio [2] | selectivity ratio [3] | MIC [4] [µg/mL] | MIC [5] [µg/mL] | IC50 [6] [nM] | MIC [7] [µg/mL] | MIC [8] [µg/mL] | IC50 [9] [nM] | MIC [10] [µg/mL] | MIC [11] [µg/mL] | MIC [12] [µg/mL] | MIC [13] [µg/mL] | MIC [14] [µg/mL] | selectivity ratio [15] | IC50 [16] [nM] | MIC [17] [µg/mL] | MIC [18] [µg/mL] | MIC [19] [µg/mL] | IC50 [20] [nM] | other results
1 | O=c1nc(NCC(O)CN2CCN(c3nccc4ccc(F)cc34)CC2)c2cc(F)ccc2o1 (racemic) | 4 (≈ 8.56 µM) | >=32 - 267 | 381 | 0.25 (≈ 0.535 µM) | 0.25 (≈ 0.535 µM) | 80000 | > 8 | 0.5 (≈ 1.07 µM) | 55000 | 1 (≈ 2.14 µM) | 0.25 (≈ 0.535 µM) | 0.25 (≈ 0.535 µM) | 16 (≈ 34.2 µM) | 0.12 (≈ 0.257 µM) | 262 | 100 | 0.5 (≈ 1.07 µM) | 0.25 (≈ 0.535 µM) | > 8 | 20 | MIC [21]: 2.14 µM (≈ 1 µg/mL); MIC [22]: 0.12 µg/mL (≈ 0.257 µM); selectivity ratio [23]: 37; MIC [24]: 0.25 µg/mL (≈ 0.535 µM); inhibition at 5 min, 10 µM [25]: 67%; MIC [26]: 0.12 µg/mL (≈ 0.257 µM); MIC [27]: 4 µg/mL (≈ 8.56 µM); selectivity ratio [28]: 26; MIC [29]: ≤ 0.06 µg/mL; Ratio [30]: >=32 - 267; IC50 [31]: 50 nM; Ratio [32]: >=32 - 267; IC50 [33]: 400 nM; MIC [34]: 0.21 µM (≈ 0.0982 µg/mL); MIC [35]: > 8 µg/mL; MIC [36]: 1 µg/mL (≈ 2.14 µM); MIC [37]: 0.5 µg/mL (≈ 1.07 µM)
2 | O=c1nc(NCC(O)CN2CCN(c3nc(F)cc4ccc(F)cc34)CC2)c2cc(F)ccc2o1 (racemic) | 1 (≈ 2.06 µM) | >=32 - 267 | > 433 | 0.12 (≈ 0.247 µM) | 0.06 (≈ 0.124 µM) | 52000 | 4 | 0.25 (≈ 0.515 µM) | 31000 | 0.5 (≈ 1.03 µM) | 0.06 (≈ 0.124 µM) | 0.12 (≈ 0.247 µM) | 32 (≈ 65.9 µM) | 0.06 (≈ 0.124 µM) | > 258 | 100 | 0.12 (≈ 0.247 µM) | 0.03 (≈ 0.0618 µM) | > 8 | 20 | IC50 [38]: > 100000 nM; MIC [21]: 1.02 µM (≈ 0.495 µg/mL); MIC [22]: 0.06 µg/mL (≈ 0.124 µM); selectivity ratio [23]: 51; MIC [24]: 0.12 µg/mL (≈ 0.247 µM); inhibition at 5 min, 10 µM [25]: 24%; MIC [26]: 0.06 µg/mL (≈ 0.124 µM); MIC [27]: 2 µg/mL (≈ 4.12 µM); selectivity ratio [28]: 30; MIC [29]: ≤ 0.06 µg/mL; Ratio [30]: >=32 - 267; IC50 [31]: 40 nM; Ratio [32]: >=32 - 267; IC50 [33]: 100 nM; MIC [34]: < 0.12 µM; MIC [35]: 4 µg/mL; MIC [36]: 0.25 µg/mL (≈ 0.515 µM); MIC [37]: 0.12 µg/mL (≈ 0.247 µM)
